# Measurements taken from PubChem BioAssay AID1033 (Sanford-Burnham Center for Chemical Genomics, 2008).
# The source made the active and inactive calls. The rule behind the calls is not given here.
# Molecular target: Chaperone protein DnaK (Escherichia coli (strain K12)) (UniProt P0A6Y8)
# Test: E. coli DnaK SBD ligand binding – biophysical, NMR, chaperone (AID 1033)
# Conditions: Purified DnaK SBD
# Chaperone protein DnaK (Escherichia coli (strain K12)), sequence (P0A6Y8 whole entry, looked up): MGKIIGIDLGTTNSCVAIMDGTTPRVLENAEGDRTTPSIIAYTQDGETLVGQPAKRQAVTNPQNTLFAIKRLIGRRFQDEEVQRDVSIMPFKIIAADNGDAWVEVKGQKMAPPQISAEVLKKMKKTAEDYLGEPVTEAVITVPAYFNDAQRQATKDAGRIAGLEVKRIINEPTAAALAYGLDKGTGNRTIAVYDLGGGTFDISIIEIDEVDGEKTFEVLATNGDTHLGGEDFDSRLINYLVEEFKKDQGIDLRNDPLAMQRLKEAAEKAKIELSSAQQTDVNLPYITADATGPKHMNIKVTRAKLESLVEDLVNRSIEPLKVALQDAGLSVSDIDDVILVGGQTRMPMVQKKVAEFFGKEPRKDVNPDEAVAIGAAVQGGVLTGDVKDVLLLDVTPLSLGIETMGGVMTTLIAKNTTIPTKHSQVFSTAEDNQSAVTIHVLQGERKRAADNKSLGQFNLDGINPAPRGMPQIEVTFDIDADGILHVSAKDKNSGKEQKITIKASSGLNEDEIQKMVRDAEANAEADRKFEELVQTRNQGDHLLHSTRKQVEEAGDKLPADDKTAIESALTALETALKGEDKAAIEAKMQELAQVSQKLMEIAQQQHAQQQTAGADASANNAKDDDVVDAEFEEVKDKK
row,SMILES,Kd
1,CN1C(=O)c2ccc(C(=O)NCc3ccccc3)cc2C1=O,> 4 mM (inactive)
2,OC1CC2CCC1C2 (centres undefined),> 4 mM (inactive)
3,O=S1(=O)CCC(NCc2ccccc2)C1 (centres undefined),> 4 mM (inactive)
4,OCc1ccc(OC(F)(F)F)cc1,> 4 mM (inactive)
5,O=c1ccc2cc(O[C@@H]3O[C@H](CO)[C@@H](O)[C@H](O)[C@H]3O)c(O)cc2o1,> 4 mM (inactive)
6,NCCCCN=C(N)N,> 4 mM (inactive)
7,CNCc1ccccc1,> 4 mM (inactive)
8,O=C(Nc1ccc(N2CCOCC2)cc1)C1CC1,> 4 mM (inactive)
9,O=C(O)c1cccnc1,> 4 mM (inactive)
10,CC(=O)NCC1OCCc2ccccc21 (centres undefined),> 4 mM (inactive)
11,O=C(Nc1nncs1)c1c(F)cccc1F,> 4 mM (inactive)
12,CC(=O)Nc1cnn(Cc2ccc(Br)cc2)c1,> 4 mM (inactive)
13,COc1ccc2c(c1)O[C@@H]1COc3cc(OC)c(OC)cc3[C@@H]1C2=O,> 4 mM (inactive)
14,NC(=O)c1sc2ccccc2c1Cl,> 4 mM (inactive)
15,COc1cc(N)ncn1,> 4 mM (inactive)
16,Cc1cc(=O)[nH]c2ccccc12,> 4 mM (inactive)
17,COC(=O)CC1NC2CCCCC2NC1=O (centres undefined),> 4 mM (inactive)
18,Cc1cc(C)cc(C(=O)n2cnnc2N)c1,> 4 mM (inactive)
19,CC1(C)C2CC[C@]3(C)C(C(=O)C=C4[C@@H]5C[C@@](C)(C(=O)O)CC[C@]5(C)CC[C@]43C)[C@@]2(C)CC[C@@H]1O (some centres undefined),> 4 mM (inactive)
20,Cc1nc2c(n1O)CCc1c-2no[n+]1[O-],> 4 mM (inactive)
21,O=C(Nc1ccccc1)Nc1ccccn1,> 4 mM (inactive)

row,SMILES,Kd
1,O=C(Nc1cnccn1)c1cccs1,> 4 mM (inactive)
2,CC1(C)Cc2c(c(-c3ccco3)[nH]c(=O)c2C#N)CO1,> 4 mM (inactive)
3,Cn1ncc(N2CCOCC2)c(Cl)c1=O,> 4 mM (inactive)
4,CC(C)NC(=O)c1cc(-n2cnnc2)ccc1Cl,> 4 mM (inactive)
5,CN(C)Cc1nc2c([nH]1)c(=O)[nH]c(=O)n2C,> 4 mM (inactive)
6,NC(=O)c1ccccc1N1CCCCC1,> 4 mM (inactive)
7,Oc1ccc(-n2cncn2)cc1,> 4 mM (inactive)
8,CC(=O)Nc1ccncc1NC(C)=O,> 4 mM (inactive)
9,O=C(O)CCC(=O)Nc1ccccc1F,> 4 mM (inactive)
10,Cc1c(N=CN2CCOCC2)c(=O)n(C)c(=O)n1C,> 4 mM (inactive)
11,O=c1cnnc(Nc2ccc(O)cc2)[nH]1,> 4 mM (inactive)
12,NC1=NC(=O)C(Cc2ccccc2)S1 (centres undefined),> 4 mM (inactive)
13,CC1=[N+]([O-])C2(N)CCc3c(no[n+]3[O-])C2(O)C1 (centres undefined),> 4 mM (inactive)
14,Cc1ccc(N2C(=O)CCC2=O)cc1,> 4 mM (inactive)
15,COc1cccc(Oc2ccc(N)cn2)c1,> 4 mM (inactive)
16,NCCNC(=S)Nc1ccccc1,> 4 mM (inactive)
17,C=CC1=C(C)/C(=C/c2[nH]c(Cc3[nH]c(/C=C4\NC(=O)C(C)=C4C=C)c(C)c3CCC(=O)O)c(CCC(=O)O)c2C)NC1=O,> 4 mM (inactive)
18,CN1C(=O)/C(=C/c2ccc(O)cc2O)SC1=S,> 4 mM (inactive)
19,OCc1csc(-c2cccs2)n1,> 4 mM (inactive)
20,Cc1noc(C)c1C(=O)N1CCC2(CC1)OCCO2,> 4 mM (inactive)
21,O=S1(=O)C=C(Nc2ccccc2)CC1,> 4 mM (inactive)

row,SMILES,Kd
1,O=C1CS/C(=N/N=C2CCCC2)N1,> 4 mM (inactive)
2,CC1(C)CCC(C)(C)c2cc(C(=O)O)ccc21,> 4 mM (inactive)
3,O=c1c(-c2cccs2)[n+]([O-])c2ccccc2n1O,> 4 mM (inactive)
4,COc1cc(C2NC(=S)NC(C)=C2C(C)=O)ccc1O (centres undefined),> 4 mM (inactive)
5,COC(=O)C[C@@H]1C2(C)C(=O)[C@@H](CC3=C4C=C(OC)O[C@@H](c5ccoc5)[C@]4(C)CCC32)[C@H](O)C1(C)C (some centres undefined),> 4 mM (inactive)
6,C[C@H]1O[C@@H](O[C@H]2[C@@H](O)C[C@H](O[C@H]3[C@@H](O)C[C@H](O[C@H]4CC[C@]5(C)C6CC[C@]7(C)[C@@H](C8=CC(=O)OC8)CC[C@]7(O)C6CC[C@@H]5C4)O[C@@H]3C)O[C@@H]2C)C[C@H](O)[C@@H]1O (some centres undefined),> 4 mM (inactive)
7,COc1ccc(C)cc1S(N)(=O)=O,> 4 mM (inactive)
8,Cc1cc(C(=O)Nc2ccc3c(c2)OCCO3)c(C)o1,> 4 mM (inactive)
9,C[C@@H]1CC[C@@]2(OC1)OC1CC3C4CC=C5C[C@@H](O)CC[C@]5(C)C4CC[C@]3(C)C1[C@@H]2C (some centres undefined),> 4 mM (inactive)
10,Cc1ccc(-c2nn(C)c(=O)c3ccccc23)cc1CO,> 4 mM (inactive)
11,CCOC(=O)C1CCNCC1,> 4 mM (inactive)
12,CN1CCC(NC(=S)NC2CC2)CC1,> 4 mM (inactive)
13,O=C(Nc1cccnc1)c1ccc(Br)s1,> 4 mM (inactive)
14,Nc1cccc(-n2cnnn2)c1,> 4 mM (inactive)
15,Nc1ncnc2c1ncn2C1O[C@H](COP(=O)(O)O)[C@@H](O)[C@H]1O (some centres undefined),> 4 mM (inactive)
16,O=c1c(-c2ccco2)[n+]([O-])c2ccccc2n1O,> 4 mM (inactive)
17,CC1(C)C(=O)C=C[C@@]2(C)C1C=C[C@]1(C)C2CC[C@@]2(C)[C@H](c3ccoc3)OC(=O)C3OC321 (some centres undefined),> 4 mM (inactive)
18,Nc1ccc(Cl)nn1,> 4 mM (inactive)
19,CC(=O)c1c(O)c(C)c(O)c2c1OC1=CC(=O)C(C(C)=O)C(=O)C12C (centres undefined),> 4 mM (inactive)
20,NCc1ccc(CN2CCOCC2)cc1,> 4 mM (inactive)
21,CN1CCN(C(=O)C2CCCNC2)CC1 (centres undefined),> 4 mM (inactive)

row,SMILES,Kd
1,COc1cc(C(=S)N2CCCC2)cc(Cl)c1O,> 4 mM (inactive)
2,CCOc1ccc(C)cc1S(=O)(=O)n1ccc(C)n1,> 4 mM (inactive)
3,CC(C)=CCc1c(O)cc2occ(-c3ccc4c(c3)OCO4)c(=O)c2c1O,> 4 mM (inactive)
4,CS(=O)(=O)Cc1ccccc1,> 4 mM (inactive)
5,COc1ccc(-c2c(OC)c3c(OC)c4c(cc3oc2=O)OC(C)(C)C=C4)cc1,> 4 mM (inactive)
6,CNS(=O)(=O)c1cc(OC)ccc1OC,> 4 mM (inactive)
7,O=C(c1ccco1)N1CCn2c1nc1ccccc12,> 4 mM (inactive)
8,Cc1c(N=CN(C)C)c(=O)n(-c2ccccc2)n1C,> 4 mM (inactive)
9,O=C1CN(C(=O)c2ccccc2F)c2ccccc2N1,> 4 mM (inactive)
10,COc1ccc(C)cc1-n1c(-c2ccncc2)n[nH]c1=S,> 4 mM (inactive)
11,CCN1CCC2(CC1)CC1CC3C=CC1(CN2C(C)=O)O3 (centres undefined),> 4 mM (inactive)
12,Nc1nnc(SCc2ccc3c(c2)OCO3)s1,> 4 mM (inactive)
13,COc1ccc(C(=O)/C=C2\NC(=S)NC2=O)cc1,> 4 mM (inactive)
14,CC(O)(C(=O)O)c1ccccc1 (centres undefined),> 4 mM (inactive)
15,NCC(O)c1ccc(O)cc1 (centres undefined),> 4 mM (inactive)
16,CN1CCCCC1c1ccc(-c2cccnc2)nc1 (centres undefined),> 4 mM (inactive)
17,COc1cc2c(cc1O)CC1c3c(cc(O)c(OC)c3-2)CCN1C (centres undefined),> 4 mM (inactive)
18,Cc1noc(C)c1CSc1nc2ccccc2[nH]1,> 4 mM (inactive)
19,C/C=C(\C)c1nnc(NC(=O)c2ccco2)s1,> 4 mM (inactive)
20,Cc1noc(C)c1C(=O)NCc1cccs1,> 4 mM (inactive)
21,CN1CCN(C(=O)/C=C\C(=O)O)CC1,> 4 mM (inactive)
